Reference: patent publication US11376264B2, “Use of bromodomain-containing protein 9 antagonists in combination with vitamin D receptor agonists in diabetes treatment” (Salk Institute for Biological Studies, priority 2017, dated 2022)

Tests used:
[1] = tested on: BAF/PBAF complex binding at Nfkbia, Nfkbiz, Camk4; assay: ChIP-qPCR of ARID1B and BAF180 at VDR target loci; assay type: cell-based, rat
Description: The experimental procedure for ChIP was as previously described (Barish et al., 2010, Genes Dev 24:2760-5). Briefly, after fixation, nuclei from were isolated, lysed, and sheared with a Diagenode Bioruptor to yield DNA fragment sizes of 200-1,000 bp followed by immunoprecipitation.

[2] = tested on: VDR association with BAF/PBAF complex components; assay: VDR interactome (MudPIT, Western blot) in INS1 cells expressing HA-tagged VDR; assay type: cell-based, rat; settings: for VDR interactions of key components of the PBAF complex (PBRM1, ARID2): INS1 cells expressing HA-tagged VDR; for VDR association of proteins common to the BAF and PBAF complexes: e.g. SMARCA1, SMARCA2, SMARCA4
Protocol: Immunoprecipitations were performed as described previously (He et al., 2010, Mol. Cell 38, 428-38). Briefly, cells are lysed using ice-cold lysis buffer (HEPES 20 mM pH8, EDTA 0.2 mM, NaCl 0.3 mM, NP40 0.5%, 15% glycerol) for 15 min, and after centrifuging the supernatant was collected. For HA- or Flag-tagged proteins, immunoprecipitations were performed using HA-magnetic beads (Pierce, P188836), or Flag-magnetic beads (Sigma, M8823) for 1.5 hr at 4° C. For other immunoprecipitations, primary antibodies were incubated with lysates for 2 hr followed by Protein A magnetic beads (Life Technologies, 10001D). After 3 washes with wash buffer (HEPES 10 mM pH8, EDTA 0.2 mM, NaCl 0.3 mM, NP40 0.1%, 15% glycerol), the beads were boiled with NuPage LDS sample buffer and the lysates were stored at -20° C. Samples were precipitated by methanol/chloroform. Dried pellets were dissolved in 8 M urea/100 mM TEAB, pH 8.5. […] Proteins were digested overnight at 37° C. in 2 M urea/100 mM TEAB, pH 8.5, with trypsin (Promega). Digestion was quenched with formic acid, 5% final concentration. The digested samples were analyzed on a Fusion Orbitrap tribrid mass spectrometer (Thermo). The digest was injected directly onto a 30 cm, 75 um ID column packed with BEH 1.7 um C18 resin (Waters). Samples were separated at a flow rate of 200 nl/min on a nLC 1000 (Thermo). […] Column was re-equilibrated with 20 ul of buffer A prior to the injection of sample. Peptides were eluted directly from the tip of the column and nanosprayed directly into the mass spectrometer by application of 2.5 kV voltage at the back of the column. The Orbitrap Fusion was operated in a data-dependent mode. Full MS1 scans were collected in the Orbitrap at […] resolution with a mass range of 400 to 1600 m/z and an AGC target of 5e5. The cycle time was set to 3 sec, and within this 3 sec the most abundant ions per scan were selected for CID MS/MS in the ion trap with an AGC target of 1e4 and minimum intensity of 5000. Maximum fill times were set to 50 ms and 100 ms for MS and MS/MS scans respectively. Quadrupole isolation at 1.6m/z was used, monoisotopic precursor selection was enabled and dynamic exclusion was used with exclusion duration of 5 sec. Protein and peptide identification were done with Integrated Proteomics Pipeline-IP2 (Integrated Proteomics Applications). Tandem mass spectra were extracted from raw files using RawConverter (ref1) and searched with ProLuCID (ref2) against rat UniProt database. The search space included all fully-tryptic and half-tryptic peptide candidates. Carbamidomethylation on cysteine was considered as a static modification. Acetylation (42.010565) was considered as a differential modification on Lysine and the N-terminus. […]

[3] = tested on: human islets; assay: Long term ex vivo human islet cultures; assay type: cell-based; settings: for insulin secretion: 1 week; for islet survival (cell numbers): 4 weeks
Protocol: (§1) Mouse pancreatic islets were isolated as previously described (Yoshihara et al., 2010, Nat. Commun 1:127) with slight modification. Briefly, 0.5 mg/ml collagenase P (Roche REF 1213873001, diluted in HBSS buffer, GIBCO, 14170-112) was injected through the common bile duct, and the perfused pancreas dissected and incubated at 37° C. for 21 min. Digested exocrine cells and intact islets were separated via centrifugation (900×g for 15 min) over Histopaque-1077 (Sigma, H8889), and intact islets were manually selected. Human islets were provided by the Integrated Islets Distribution Program (see details below).

[4] = tested on: h-IAPP mouse islets; assay: Islets from aged h-IAPP transgenic mice treated ex vivo (qPCR); assay type: cell-based; settings: 72 hr ex vivo, 15 month old mice
Protocol: as §1, with “Samples were run in triplicate and expression was normalized to the levels of the housekeeping controls Rplp0 (36b4) for human and mouse. Samples were analyzed by qPCR, using SYBR Green dye (Bio-rad). Statistical comparisons were made using Student's t test. Error bars are mean±SEM. Primers used are shown below: Mouse” for “Mouse”

[5] = tested on: INS1 cells; assay: Thapsigargin or tunicamycin-induced ER stress in INS1 cells (p-PERK Western); assay type: cell-based, rat; settings: Cal pre-treated 1 hour, stressor overnight

Row | SMILES | ARID1B (BAF complex) binding at target gene loci [1] | BAF180 (PBAF complex) binding at target gene loci [1] | VDR interactions of key components of the PBAF complex (PBRM1, ARID2) [2] | VDR association of proteins common to the BAF and PBAF complexes [2] | insulin secretion [3] | insulin secretion ([3]; listed as Calcipotriol) | islet survival (cell numbers) [3] | islet survival (cell numbers) ([3]; listed as Calcipotriol) | inflammatory and stress markers [4] | ER stress (p-PERK) [5]
1 | CCn1cc(-c2cccc(C(F)(F)F)c2)c2sc(C(=N)NC3CCS(=O)(=O)CC3)cc2c1=O [iBRD9] | reduces BAF complex binding | increases PBAF complex binding | significantly increased | increased | – | – | – | – | – | –
2 | C=C1/C(=C\C=C2/CCC[C@]3(C)[C@@H]([C@H](C)/C=C/[C@@H](O)C4CC4)CC[C@@H]23)C[C@@H](O)C[C@@H]1O [Cal, calcipotriol] | – | – | significantly increased | increased | increased | Increases | increased | Increases | reduced | attenuated
